According to patent US20110070326A1, “OREGANO EXTRACT AND ITS COMPONENTS FOR ENHANCING VIGILANCE” (DSM IP ASSETS B.V., priority 2006, published 2011):

Experiments:
[1] = molecular target: T1, human serotonin re-uptake transporter (hSERT) (Homo sapiens, UniProt P31645); test: Serotonin uptake inhibition in HEK-293 cells expressing hSERT; format: cell-based; details: single compounds; transfected HEK-293 cells, 20 nM 3H-serotonin, 30 minutes; read-out: IC50 for tritiated serotonin uptake
T1 construct: host or cells: HEK-293
T1 sequence (P31645 whole entry): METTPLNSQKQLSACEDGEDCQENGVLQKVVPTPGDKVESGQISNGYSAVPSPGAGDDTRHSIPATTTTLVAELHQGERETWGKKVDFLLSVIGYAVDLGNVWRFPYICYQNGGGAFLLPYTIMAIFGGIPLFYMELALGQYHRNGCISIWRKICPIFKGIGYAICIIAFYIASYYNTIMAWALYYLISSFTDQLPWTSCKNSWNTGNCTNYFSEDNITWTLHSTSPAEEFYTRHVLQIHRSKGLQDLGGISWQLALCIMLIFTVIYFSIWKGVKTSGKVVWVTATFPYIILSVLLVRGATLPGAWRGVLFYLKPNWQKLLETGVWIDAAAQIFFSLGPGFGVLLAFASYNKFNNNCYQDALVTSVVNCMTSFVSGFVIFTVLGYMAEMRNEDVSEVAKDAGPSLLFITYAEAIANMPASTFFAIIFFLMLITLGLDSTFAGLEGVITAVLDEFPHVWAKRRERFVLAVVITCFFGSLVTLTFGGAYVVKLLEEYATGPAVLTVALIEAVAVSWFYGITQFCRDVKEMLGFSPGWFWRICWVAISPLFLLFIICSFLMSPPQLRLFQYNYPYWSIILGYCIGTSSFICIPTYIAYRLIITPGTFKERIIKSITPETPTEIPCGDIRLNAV
Protocol: HEK-293 cells stably expressing the human serotonin re-uptake transporter (hSERT) were obtained from R. Blakely, Vanderbilt University, USA. The cells were routinely grown in Dulbecco's Modified Eagle's Medium, purchased from Bioconcept, Allschwil, Switzerland containing 10% fetal calf serum, penicillin, streptomycin, L-glutamine and the antibiotic G418 and passaged by trypsinisation. 1 day prior to the assay cells were seeded in the above mentioned medium. […] Serotonin uptake into the cells was determined by addition of radio-labeled (3H) serotonin (Amersham Biosciences GE Healthcare, Slough, UK) to a concentration of 20 nM, and incubation for 30 minutes at room temperature. Following removal of unincorporated label by gentle washing three times with the above buffer, incorporated serotonin was quantified by liquid scintillation counting.

[2] = molecular target: T2, human dopamine transporter (hDAT) (Homo sapiens, UniProt Q01959); format: cell-based; details: transfected CHO-Ki cells, 50 nM [3H]Dopamine; n = 2; read-out: IC50 for inhibition of dopamine reuptake
T2 construct: expressed in transfected cells; host or cells: CHO-Ki (CHO-K1)
T2 sequence (Q01959 whole entry): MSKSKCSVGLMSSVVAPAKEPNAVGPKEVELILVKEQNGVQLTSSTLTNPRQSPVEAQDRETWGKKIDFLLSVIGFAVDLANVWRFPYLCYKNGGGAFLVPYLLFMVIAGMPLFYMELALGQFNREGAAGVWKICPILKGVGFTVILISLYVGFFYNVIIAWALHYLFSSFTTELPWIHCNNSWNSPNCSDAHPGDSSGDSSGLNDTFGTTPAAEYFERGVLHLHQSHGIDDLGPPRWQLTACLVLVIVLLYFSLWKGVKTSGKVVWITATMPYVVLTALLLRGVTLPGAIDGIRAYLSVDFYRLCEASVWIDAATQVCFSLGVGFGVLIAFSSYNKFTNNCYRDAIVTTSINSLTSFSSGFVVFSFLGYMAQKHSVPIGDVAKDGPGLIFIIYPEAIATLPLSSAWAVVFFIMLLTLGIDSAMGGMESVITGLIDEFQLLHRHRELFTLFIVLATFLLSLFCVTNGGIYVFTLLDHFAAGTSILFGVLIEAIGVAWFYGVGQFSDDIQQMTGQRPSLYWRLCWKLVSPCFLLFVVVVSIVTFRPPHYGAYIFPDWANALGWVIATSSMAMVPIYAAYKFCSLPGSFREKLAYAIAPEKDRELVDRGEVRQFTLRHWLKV
Protocol: CHO-Ki/hDAT cells expressing the human dopamine transporter (hDAT) were plated before the assay. Cells (2×10^5/ml) were incubated with oregano extract and/or vehicle in modified Tris-HEPES buffer pH 7.1 at 25° C. for 20 minutes before addition of 50 nM [^3H]Dopamine for 10 minutes. Specific signal was determined in the presence of 10 μM nomifensine. Cells were then solubilized with 1% SDS lysis buffer. Reduction of [^3H]Dopamine uptake by 50 percent or more (≧50%) relative to vehicle controls indicates significant inhibitory activity.

[3] = tested on: mice; test: Porsolt's Forced Swim Test (Behavioral Despair Test), i.p.; format: in vivo, mouse; details: 32 mg/kg i.p., −30 min; 15 mice
Protocol: The test, which detects antidepressant activity, was carried out as described by Porsolt et al supra. Mice which are forced to swim in a situation from which they cannot escape rapidly become immobile. Antidepressants decrease the duration of immobility.
Mice were individually placed in cylinders (Height=24 cm, Diameter=13 cm) containing 10 cm water (22° C.) from which they could not escape. The mice were placed in the water for 6 minutes and the duration of immobility during the last 4 minutes was measured.
15 mice were studied per each of the four groups.
Oregano extract 1 was evaluated at 3 doses (10, 30 and 60 mg/kg), administered i.p. 30 minutes before the test, and compared with a control group, administered vehicle in the same manner. The thus administered […] was dissolved in vehicle (saline solution containing 3% (v/v) DMSO and 3% (v/v) Tween® 80). Venlafaxine (16 mg/kg, i.p.), as comparison substance, and imipramine (32 mg/kg, i.p.), as reference compound, were administered under the same experimental conditions.
Data were analyzed by comparing the treated groups with the control group using unpaired Student's t tests and are presented in Table 3.

[4] = tested on: mouse; test: Porsolt's Forced Swim Test after subchronic oral gavage; format: in vivo; details: 32 mg/kg p.o., −24, −5, −1 h
Protocol: This test, which detects antidepressant activity, was performed in the same manner as that described in example 7, except that the route of administering the compound and the doses were different. Oregano extract 4 was evaluated at 3 doses (75, 150, and 300 mg/kg), administered orally (p.o.) 24, 5, and 1 hour before the test, and compared with a vehicle control group. The thus administered […] was dissolved in tocopherol-stripped corn oil “vehicle”). The control group was administered vehicle (p.o.), while imipramine (32 mg/kg, p.o.; dissolved in water) was administered to a separate group as reference compound, 24, 5 and 1 h prior to the test.
Mice were individually placed in cylinders (Height=24.5 cm, Diameter=19.5 cm) containing 13.5 cm water (22° C.) from which they could not escape. The mice were placed in the water for 6 minutes, automatically viewed via a video camera and monitored by a commercially available software system (VideoMot2, TSE Systems GmbH, Germany), and the duration of immobility during the last 4 minutes was measured.
10 mice were studied per each of the five groups. Data were analyzed by comparing the treated groups and the positive control group with the vehicle group using Analysis of Variance (ANOVA) and the Bonferroni post-hoc test.

Compound | IC50 [1] [µM] | IC50 [2] [µM] | DURATION OF IMMOBILITY % change from control [3] [%] | DURATION OF IMMOBILITY (s) Mean ± s.e.m. [3] [s] | DURATION OF IMMOBILITY % change from control [4] [%] | DURATION OF IMMOBILITY (s) Mean ± s.e.m. ([4]; 10 mice) [s]
Cc1ccc(C(C)C)c(O)c1 [Thymol] | 5 | – | – | – | – | –
Cc1cc(O)c(C(C)C)cc1O [Thymoquinol] | 26.6 | 65.6 ± 1.2 | – | – | – | –
CN(C)CCCN1c2ccccc2CCc2ccccc21 [Imipramine] | – | – | −70 | 49.7 ± 7.9 | −50 | 64.59 ± 8.26
